Columns and labels:
obese diabetic patients [1] = experiment: Oral Glucose Tolerance Test (OGTT) or standardized meal after a single dose; format: in vivo, human; conditions: overnight fasted patients
Protocol: Drug is delivered as an enema or suppositories made as described in^1 (containing 1 g of glutamine). 10 overnight fasted obese diabetic patients with impaired gut hormone effect^3 and/or impaired gut hormone secretion^4,5 are dosed rectally with one suppository (or enema). 30 minutes after drug administration, patients are subjected to Oral Glucose Tolerance Test (OGTT) or standardized meal. Blood is collected at the following time points: −30, 0, 5; 10, 15, 30, 60, 90, and 120 minutes. Blood is analyzed for levels of: glucose, insulin, GLP-1, PYY, other hormones and lipids. […] Drug is delivered as an enema or suppositories made as described in^1 (containing 2 g of butyric acid). 10 overnight fasted obese diabetic patients with impaired incretin effect^3 and/or impaired gut hormone secretion^4,5 are dosed rectally with one suppository (or enema). 30 minutes after drug administration, patients are subjected to Oral Glucose Tolerance Test (OGTT) or standardized meal. Blood is collected at the following time points: −30, 0, 5; 10, 15, 30, 60, 90, and 120 minutes. Blood is analyzed for levels of: glucose, insulin, GLP-1, PYY, other hormones and lipids. […] Tablets formulated with MMX technology (containing 1 g of glutamine) are made as described in^2. 10 overnight fasted obese diabetic patients with impaired gut hormone effect^3 and/or impaired gut hormone secretion^4,5 are dosed with one MMX tablet at 8:00 AM. 4 hrs after drug administration, patients are subjected to Oral Glucose Tolerance Test (OGTT) or standardized meal. Blood is collected at the following time points: −30, 0, 5; 10, 15, 30, 60, 90, and 120 minutes. Blood is analyzed for levels of: glucose, insulin, GLP-1, PYY, other hormones and lipids. […] Tablets formulated with MMX technology (containing 2 g of butyric acid) are made as described in^2. 10 overnight fasted obese diabetic patients with impaired gut hormone effect^3 and/or impaired gut hormone secretion^4,5 are dosed with one MMX tablet at 8:00 AM. 4 hrs after drug administration, patients are subjected to Oral Glucose Tolerance Test (OGTT) or standardized meal. Blood is collected at the following time points: −30, 0, 5; 10, 15, 30, 60, 90, and 120 minutes. Blood is analyzed for levels of: glucose, insulin, GLP-1, PYY, other hormones and lipids.

obese diabetic patients [2] = experiment: Six-week once-daily MMX tablet treatment with OGTT or standardized meal; format: in vivo, human; conditions: one MMX tablet daily before first meal for six weeks
Protocol: Tablets formulated with MMX technology (containing 1 g of glutamine) are made as described in^2. 10 obese diabetic patients with impaired incretin effect^3 and/or impaired incretin secretion^4,5 are dosed with one MMX tablet at 8:00 AM before first meal for six (6) weeks. HbA1c, fasting glucose and insulin are measured before treatment and at 1, 2, and 6 weeks after initiation of the treatment. Additionally, patients are subjected at these times to Oral Glucose Tolerance Test (OGTT) or standardized meal. Blood is collected at the following time points: −30, 0, 5; 10, 15, 30, 60, 90, and 120 minutes. Blood is analyzed for levels of: glucose, insulin, GLP-1, PYY, other hormones and lipids. […] Tablets formulated with MMX technology (containing 2 g of butyric acid) are made as described in^2. 10 obese diabetic patients with impaired gut hormone effect^3 and/or impaired gut hormone secretion^4,5 are dosed with one MMX tablet at 8:00 AM before first meal for six (6) weeks. HbA1c, fasting glucose and insulin are measured before the treatment and at 1, 2, and 6 weeks after initiation of the treatment. Additionally, patients are subjected at these times to Oral Glucose Tolerance Test (OGTT) or standardized meal. Blood is collected at the following time points: −30, 0, 5; 10, 15, 30, 60, 90, and 120 min. Blood is analyzed for levels of: glucose, insulin, GLP-1, PYY, other hormones and lipids.

[3] = one MMX tablet orally, 4 hrs before OGTT or standardized meal
[4] = one MMX tablet orally, 4 hrs before standardized meal
[5] = one suppository or enema rectally, 30 minutes before OGTT or standardized meal
[6] = one suppository or enema rectally, 30 minutes before standardized meal

SMILES	Glucose levels (obese diabetic patients [1]; [3])	lipids levels (after standardized meal) (obese diabetic patients [1]; [4])	Glucose levels (obese diabetic patients [1]; [5])	lipids levels (after standardized meal) (obese diabetic patients [1]; [6])	Glucose levels (obese diabetic patients [2])	triglycerides levels versus pre-treatment (obese diabetic patients [2])
CCCC(=O)O [butyric acid]	decrease	decrease	decrease	decrease	decrease	lower than pre-treatment levels
NC(=O)CC[C@H](N)C(=O)O [glutamine]	decrease	decrease	decrease	decrease	decrease	lower than pre-treatment levels

From US9301938B2, “Composition and method for treatment of diabetes” (BioKier, Inc., priority 2009, dated 2016)
